“Also recorded” adds a separate entry of the source.
Experiments:
IgE = experiment: Serum IgE level by ELISA, Balb/c; format: in vivo, mouse; details: atopy-induced Balb/c mice
Method: After treatment with the test substance, the mice were sacrificed and blood was taken from the heart. After isolating serum from the blood, IgE level was measured. Specifically, after attaching antibodies diluted in a buffer solution onto a 96-well plate and incubating overnight at 4° C., experiment was conducted using an IgE ELISA kit (BD Biosciences, San Diego, CA) according to the provided manual. The quantity of the IgE protein was determined by measuring absorbance at 450 nm using a microplate reader.

IL4 = IL4 mRNA in skin tissue by quantitative real-time PCR, Balb/c; format: in vivo, mouse; details: atopy-induced Balb/c mice, normalized to β-actin
Method: (§1) After isolating total RNA from the atopy-induced skin tissue using 500 μL of Trizol (Life Technologies, USA) according to the manufacturer's protocol and synthesizing cDNA using the Superscript III reverse transcriptase (Life Technologies, USA), real-time PCR was conducted by reacting with the primers of IL4 and interferon γ to be analyzed. The real-time PCR was conducted on a StepOne Plus PCR cycler (Applied Biosystems) using SYBR Green (Applied Biosystems, Foster City, CA). The mRNA expression data were analyzed by the ΔΔCT method and were normalized to β-actin for gene detection. The primers necessary for the real-time PCR were purchased from Qiagen (USA). […] IL4 is known to induce TH2 response and interferon γ is known to induce TH1 response.

[1] = tested on: pruritus caused by atopic contact dermatitis; experiment: Pruritus inhibition test, pruritus induced with DNFB; format: in vivo, mouse; details: 0.1% in physiological saline applied once onto right ear; pruritus measured for 1 hour
Method: In order to investigate whether L-form, LID-form and D-form N-acetylalanine, N-acetylarginine, N-acetylthreonine and N-acetyltryptophan inhibit pruritus caused by atopic contact dermatitis, 20 μL of 0.1% 2,4-dinitrofluorobenzene (DNFB) solution and 0.1% N-acetylamino acid dissolved in physiological saline were applied once onto the right ear 10 minutes after the final treatment (day 27) with 2,4-dinitrofluorobenzene (DNFB) (Physiological saline was applied to a negative control group), and then pruritus was measured for 1 hour. FIG. 7 compares the pruritus-relieving effect of L-form N-acetylalanine, N-acetylthreonine, N-acetylarginine and N-acetyltryptophan with D/L-form and D-form N-acetylalanine and N-acetyltryptophan at 0.1% after the induction of pruritus with DNFB.

interferon γ = experiment: Interferon γ mRNA in skin tissue by quantitative real-time PCR, Balb/c; format: in vivo, mouse; details: atopy-induced Balb/c mice, normalized to β-actin
Method: as §1

[2] = tested on: atopic dermatitis-induced Balb/c mouse; experiment: SCORAD clinical skin score, DNFB-induced atopic dermatitis in Balb/c mouse; format: in vivo; design: key to Mouse 1 Sum / Mean (of Sum, SCORAD) / Mouse 2 Sum / Mouse 3 Sum: sum of symptom grades, each 0 (none) to 3 (severe); details: for skin-soothing and atopic dermatitis-treating effect (SCORAD, Table 1, FIG. 2A): Balb/c atopic dermatitis model, 0.1% topical, P<0.05 versus DNFB group; for apparent degree of dermatitis (back skin images, FIG. 2B): Balb/c, treated for 7 days, day 29; for Mouse 1 Erythema / Mouse 1 Abrasion / Mouse 1 Dryness / Mouse 1 Edema / Mouse 1 Eschar / Mouse 1 Lichenification / Mouse 1 Sum / Mouse 2 Abrasion / Mouse 2 Dryness / Mouse 2 Edema / Mouse 2 Erythema / Mouse 2 Eschar / Mouse 2 Lichenification / Mouse 2 Sum / Mouse 3 Abrasion / Mouse 3 Dryness / Mouse 3 Edema / Mouse 3 Erythema / Mouse 3 Eschar / Mouse 3 Lichenification / Mouse 3 Sum / Mean (of Sum, SCORAD): DNFB Balb/c; for Mouse 1 Erythema: 0.1% in PBS, 200 μL on back skin daily day 22-28, grade 0-3 (0 no symptom, 1 mild, 2 moderate, 3 severe); for Mouse 1 Abrasion / Mouse 1 Dryness / Mouse 1 Edema / Mouse 1 Eschar / Mouse 1 Lichenification / Mouse 1 Sum / Mouse 2 Abrasion / Mouse 2 Dryness / Mouse 2 Edema / Mouse 2 Erythema / Mouse 2 Eschar / Mouse 2 Lichenification / Mouse 2 Sum / Mouse 3 Abrasion / Mouse 3 Dryness / Mouse 3 Edema / Mouse 3 Erythema / Mouse 3 Eschar / Mouse 3 Lichenification / Mouse 3 Sum / Mean (of Sum, SCORAD): 0.1% topical day 22-28; for Mouse 1 Abrasion / Mouse 1 Dryness / Mouse 1 Edema / Mouse 1 Eschar / Mouse 1 Lichenification / Mouse 2 Abrasion / Mouse 2 Dryness / Mouse 2 Edema / Mouse 2 Erythema / Mouse 2 Eschar / Mouse 2 Lichenification / Mouse 3 Abrasion / Mouse 3 Dryness / Mouse 3 Edema / Mouse 3 Erythema / Mouse 3 Eschar / Mouse 3 Lichenification: grade 0-3; for Mouse 1 Sum / Mouse 2 Sum / Mouse 3 Sum: overall dermatitis score, sum of individual scores; for Mean (of Sum, SCORAD): mean of 3 mice
Method: In order to induce atopy-like dermatitis in Balb/c mice, DNFB sensitization was induced by applying 100 μL of 0.35% 2,4-dinitrofluorobenzene (DNFB) (Sigma, USA) in acetone/olive oil (3:1) on the shaved back skin of the mice. Then, dermatitis was induced by applying 100 μL of 0.25% DNFB on days 6, 9, 12, 15, 18 21, 24 and 27 on the shaved back skin. Control mice were treated with a vehicle of the same volume (FIG. 1A).
After dissolving an N-acetyl or N-acylamino acid in phosphate-buffered saline to 0.1%, 200 μL of the solution was applied on the back skin of the mice every day, from day 22 until day 28 for the Balb/c atopic dermatitis model, and from day 15 until day 21 for the Nc/Nga atopic dermatitis model. When the N-acetyl or N-acylamino acid was treated together with DNFB, they were treated with 12-hour intervals in order to avoid direct reaction between the DNFB and the N-acetyl or N-acylamino acid. A non-treated group and a 2,4-dinitrofluorobenzene (DNFB) group were treated with phosphate-buffered saline of the same volume (FIGS. 1A-1B). As the N-acetylamino acid, products purchased from Sigma-Aldrich (USA), MP scientific (USA), TCI (Tokyo Chemical Industry, Japan), Santacruz (USA), etc. were used without purification.
The degree of skin soothing and the severity of atopic dermatitis were evaluated macroscopically according to the previously established SCORAD (SCORing Atopic Dermatitis) method (Oranje et al., 2007). The degree of symptoms such as edema, erythema, eschar, dryness, abrasion, lichenification, etc. was graded from 0 to 3 (0, no symptom; 1, mild; 2, moderate; 3, severe). The overall dermatitis score was determined from the sum of all individual scores (Table 1). The assessment was performed by an investigator who was blind to the grouping of the mice.

| Structure (SMILES) | serum IgE level (FIG. 4A) (IgE) | level of IL4 in the skin tissue (FIG. 5A) (IL4) | level of interferon γ in the skin tissue (FIG. 5A) (interferon γ) | skin-soothing and atopic dermatitis-treating effect (SCORAD, Table 1, FIG. 2A) [2] | apparent degree of dermatitis (back skin images, FIG. 2B) [2] | Mouse 1 Erythema [2] | Mouse 1 Abrasion [2] | Mouse 1 Dryness [2] | Mouse 1 Edema [2] | Mouse 1 Eschar [2] | Mouse 1 Lichenification [2] | Mouse 1 Sum [2] | Mouse 2 Abrasion [2] | Mouse 2 Dryness [2] | Mouse 2 Edema [2] | Mouse 2 Erythema [2] | Mouse 2 Eschar [2] | Mouse 2 Lichenification [2] | Mouse 2 Sum [2] | Mouse 3 Abrasion [2] | further results |
| --- | --- | --- | --- | --- | --- | --- | --- | --- | --- | --- | --- | --- | --- | --- | --- | --- | --- | --- | --- | --- | --- |
| CC(=O)N[C@@H](CCCNC(=N)N)C(=O)O [N-acetyl-L-arginine] | significant decrease | significantly decreased | significantly decreased | significant skin-soothing and atopic dermatitis-treating effects; also recorded: significant atopic dermatitis-treating effect | decreased remarkably | 1 | 1 | 1 | 1 | 1 | 1 | 6 | 1 | 1 | 1 | 1 | 1 | 1 | 6 | 0 | pruritus-relieving effect (FIG. 7) [1]: significantly inhibited pruritus; Mouse 3 Dryness [2]: 1; Mouse 3 Edema [2]: 1; Mouse 3 Erythema [2]: 1; Mouse 3 Eschar [2]: 1; Mouse 3 Lichenification [2]: 1; Mouse 3 Sum [2]: 5; Mean (of Sum, SCORAD) [2]: 5.67 |
| CC(=O)N[C@@H](CS)C(=O)O [N-acetyl-L-cysteine, reference compound] | significant decrease | significantly decreased | significantly decreased | significant skin-soothing and atopic dermatitis-treating effects; also recorded: significant atopic dermatitis-treating effect | decreased remarkably | 2 | 2 | 2 | 2 | 2 | 3 | 13 | 2 | 3 | 1 | 2 | 2 | 3 | 13 | 2 | Mouse 3 Dryness [2]: 2; Mouse 3 Edema [2]: 2; Mouse 3 Erythema [2]: 1; Mouse 3 Eschar [2]: 2; Mouse 3 Lichenification [2]: 2; Mouse 3 Sum [2]: 11; Mean (of Sum, SCORAD) [2]: 12.33 |

Source: US12370161B2, “Composition for treating atopy or pruritus comprising N-acetyl or N-acyl amino acid” (STEMDR INC., priority 2017, dated 2025)
